Assay: Solubility of the poison ivy antigen in water and ethanol
Assay type: physicochemical
Description: The present inventors discovered the phenomenon of tissue deposition by precipitation (TDBP) with an allergy vaccine that was a catechol and naturally had the requisite solubility properties to achieve TDBP. In particular, the poison ivy antigen that induced tolerance when precipitated in muscle by precipitation is a catechol which is naturally insoluble in water and for which effective doses are soluble in small volumes of the pharmaceutically acceptable water-miscible solvent ethanol. The inventors termed the phenomenon vaccine delivery by precipitation (VDBP) which is a preferred embodiment of TDBP and they interpreted its probable mechanism of action.
FIG. 1 is a graphic representation of the function of the adaptive immune system in the skin, reproduced from Teunissen on intradermal immunization. It is a cartoon of how immunomodulation takes place. […] These recognize and take up molecules or particles of an antigen which they then present to naive T lymphocytes which then mature along one of what are shown here as seven different pathways. The location is the cortex of a lymph node. Dendritic cells (DC's) from either homeostatic or inflamed tissue present antigenic epitopes in their MHC Class Il molecular grooves, to naive T lymphocytes (Tn). […]

urushiol [poison ivy antigen]
solubility in ethanol (effective doses in small volumes of ethanol): soluble | solubility in water (water): insoluble
